In US7495027B2, “3-aryl-4-hydroxyfuranone compounds and the human and animal health use thereof” (Wyeth, priority 2003, dated 2009):
≈ marks a conversion by molar mass, not a printed value. Like-named read-outs stand apart in the source and are kept apart here.

Legend:
[1] = molecular target: E. coli UDP-N-acetylglucosamine enolpyruvoyl transferase, MurA (Escherichia coli, UniProt P0A749); assay: biochemical; details: (E) E. coli enzyme
Experimental: Evaluation of the Inhibitory Activity of Test Compounds Against Enzymes which Catalyze Bacterial Cell Wall Biosynthesis
S. aureus and E. coli UDP-N-acetylglucosamine enolpyruvoyl transferase, MurA
(§1) Preparation of Enzyme Solution:
The enzyme solution is prepared by admixing the following: 50 mM Tris/HCl pH 8.0, […] 1 M Tris, 5 mM DTT, […] 1 M DTT, 20% Glycerol 4 ml 50% Glycerol, add water to 10 ml.
(§2) Preparation of Stop Solution:
A procedure similar to that described by C. […] Experiments are performed by adding a solution of test compound (in a mixture of dimethylsulfoxide and water) and an enzyme solution to a well. After a pre-incubation period of 10 mintues at 37° C., Tris/BME buffer and assay buffer are added. A start point optical density (OD0) reading is taken at 340 nm immediately following the addition of assay buffer. After incubation for 1 hr at 37° C., the stop solution is added and the color is allowed to develop for 30 minutes.

[2] = molecular target: E. coli Enopyruvyl-UPD-N-acetylglucosamine reductase, Mur B (Escherichia coli, UniProt P08373); assay: biochemical; details: (E) E. coli enzyme; for IC50: read-out: MurB IC50 (converted)
Sequence of E. coli Enopyruvyl-UPD-N-acetylglucosamine reductase, Mur B (P08373 whole entry): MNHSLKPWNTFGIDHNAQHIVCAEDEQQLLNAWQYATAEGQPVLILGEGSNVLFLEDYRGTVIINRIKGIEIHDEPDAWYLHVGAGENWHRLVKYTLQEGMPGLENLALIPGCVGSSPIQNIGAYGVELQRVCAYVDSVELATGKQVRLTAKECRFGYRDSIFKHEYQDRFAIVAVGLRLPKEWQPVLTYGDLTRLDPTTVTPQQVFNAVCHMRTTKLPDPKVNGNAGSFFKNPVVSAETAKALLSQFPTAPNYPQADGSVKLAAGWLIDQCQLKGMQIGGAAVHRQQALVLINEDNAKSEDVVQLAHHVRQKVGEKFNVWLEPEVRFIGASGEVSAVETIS
Experimental: S. aureus and E. coli Enopyruvyl-UPD-N-acetylglucosamine reductase, Mur B
Preparation of Tris/BME buffer:
Dilute 17.5 uL of aqueous 5 mM BME (2-mercaptoethanol) to 50 mL with 50 mM Tris/HCl (pH 8.0).
as §1
Dilute aqueous MurB stock solution (0.94 mg/mL) with 200 parts 50 mM Tris/2-BME buffer.
Synthesis of Substrate for MurB (MurA Product EP-UDP-GluNAc):
A mixture of 13 mg UDP-N-acetylglucosamine and 5.5 mg phosphoenolpyruvate are dissolved in 10 mL Tris/BME buffer forming 2 mM concentrations of each reagent in solution.
Preparation of Assay Buffer:
The assay buffer is prepared in water from reagents with the following final concentrations: 100 mM Tris/HCl (pH 8.0), 200 μM NADPH, 100 μM MurB substrate, 10 μM 2-mercaptoethanol, and 10 μM KCl.
Experiments are performed by adding 20 μL of a solution of test compound in a mixture of dimethylsulfoxide and water and 30 μL of enzyme solution to a well. After a pre-incubation period of 20 mins. at 23° C., 50 μL of Tris/BME buffer and 100 μL of assay buffer are added. […] Controls are performed using the same procedure and employing 20 μL of a blank dimethylsulfonide and solvent mixture in place of the test compound solution.
Using these values, the IC50 for each test compound is determined by linear regression analysis.

[3] = molecular target: E. coli Uridine-diphosphate-N-acetvimuramoyl: L-alanine lipase, MurC (Escherichia coli, UniProt P17952); assay: Inhibitory activity against MurC (E. coli); format: biochemical; details: (E) E. coli enzyme; for IC50: read-out: MurC IC50 (converted)
Sequence of E. coli Uridine-diphosphate-N-acetvimuramoyl: L-alanine lipase, MurC (P17952 whole entry): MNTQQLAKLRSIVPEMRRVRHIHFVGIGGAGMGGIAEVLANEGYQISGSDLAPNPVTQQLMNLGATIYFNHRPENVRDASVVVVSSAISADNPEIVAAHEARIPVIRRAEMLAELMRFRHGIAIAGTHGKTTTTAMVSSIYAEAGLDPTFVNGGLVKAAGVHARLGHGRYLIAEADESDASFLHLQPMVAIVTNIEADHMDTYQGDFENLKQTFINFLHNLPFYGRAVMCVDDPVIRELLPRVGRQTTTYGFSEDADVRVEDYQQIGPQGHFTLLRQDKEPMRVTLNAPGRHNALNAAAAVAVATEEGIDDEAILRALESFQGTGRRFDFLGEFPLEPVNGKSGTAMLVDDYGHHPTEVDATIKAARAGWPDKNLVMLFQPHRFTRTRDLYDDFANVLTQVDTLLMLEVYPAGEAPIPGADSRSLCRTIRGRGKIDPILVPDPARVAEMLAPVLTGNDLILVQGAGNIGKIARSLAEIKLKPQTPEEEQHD
Experimental: S. aureus and E. coli Uridine-diphosphate-N-acetvimuramoyl: L-alanine lipase, MurC
The buffer is prepared from aqueous reagents with the following final concentrations: 83 mM Tris/HCl (pH 8.0), 50 mM MgC12, and 2 mM ATP.
as §1
A 1 mg/mL stock solution of MurC is prepared in a buffer consisting of 20 mM Tris/HCl (pH 8.5) with 2.5 μM BME. The stock solution is further diluted with the buffer to give a final enzyme concentration of 100 μg/mL for the E. coli stock solution and 70 μg/mL for the S. aureus stock solution.
(§3) Preparation of Test Compound Solutions:
(§4) All test solutions are prepared in DMSO as 10 mg/mL, then diluted with 50 mM Tris/HCl (pH 8.5) to 100 μg/mL.
as §2
The stop solution is prepared by stirring 1 part 4.2% ammonium molydbate in 4N HCl with 2 parts 0.045% malachite green for 30 min.
In this evaluation, the inhibitory activity of a test compound against MurC, the enzyme which catalyzes the third step of bacterial cell wall bioxynthesis is determined. Experiments are performed by adding 2.5 μl buffer, 2.5 μl 0.5M NH4SO2, 5 μl 2 μM L-Ala, 5 μl enzyme solution and 6.5 μl test compound solution to each well in a 96-well microplate. After a pre-incubation period of 10 mins. at 23° C., 3.75 μl of a 0.75 μM solution of UDP-MurNac is added to each well. Following an incubation period of 10 mins. at 37° C., 210 μl stop solution and 50 μl of a 34% w/v sodium citrate solution are added and color is allowed to develop for 10 mins. at 23° C. (Lanzetta et al., Analytical Biochemistry, 1979, 95) Optical density readings are taken at 660 nm using a Molecular Devices Spectra Max 250 with Soft Max software. Controls are performed using the same procedure and omitting the addition of UDP-MurNac.
Using these values the IC50 is determined by linear regression analysis.

[4] = molecular target: E. coli Uridine-diphosphate-N-acetylmuramoyl-L-alanine: D-glutamate liease, MurD (Escherichia coli, UniProt P14900); assay: biochemical; details: (E) E. coli enzyme
Sequence of E. coli Uridine-diphosphate-N-acetylmuramoyl-L-alanine: D-glutamate liease, MurD (P14900 whole entry): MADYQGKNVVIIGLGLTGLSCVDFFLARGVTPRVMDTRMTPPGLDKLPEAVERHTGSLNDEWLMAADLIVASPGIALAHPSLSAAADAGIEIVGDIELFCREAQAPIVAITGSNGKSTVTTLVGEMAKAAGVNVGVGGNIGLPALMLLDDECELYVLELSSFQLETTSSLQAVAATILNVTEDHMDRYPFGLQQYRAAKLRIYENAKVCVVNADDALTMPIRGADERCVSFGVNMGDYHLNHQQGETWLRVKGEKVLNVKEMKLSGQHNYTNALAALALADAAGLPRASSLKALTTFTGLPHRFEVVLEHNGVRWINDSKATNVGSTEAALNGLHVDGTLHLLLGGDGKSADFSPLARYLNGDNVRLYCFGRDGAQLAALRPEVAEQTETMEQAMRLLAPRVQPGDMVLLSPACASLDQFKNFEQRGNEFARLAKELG
Experimental: S. aureus and E. coli Uridine-diphosphate-N-acetylmuramoyl-L-alanine: D-glutamate liease, MurD
The buffer is prepared from aqueous reagents with the following final concentrations: 83 mM Tris/HCl (pH 8.0), 50 mM MgCl2, and 2 mM ATP.
as §1, §3, §4, §2
In this evaluation, the inhibitory activity of a test compound against MurD, the enzyme which catalyzes the fourth step of bacterial cell wall biosynthesis is determined.

[5] = test system: staphylococci; assay: Minimum inhibitory concentration, microdilution broth method, staphylococci; format: cell-based; details: Staphylococcus aureus, Mueller-Hinton broth, 18-22 hours at 35° C.
Experimental: (§5) Evaluation of the Minimum Inhibitory Concentration of Test Compounds Against A Variety of Bacterial Strains
(§6) In this evaluation the minimal inhibitory concentration (MIC) of test compounds against Gram positive and Gram negative bacteria is performed using the microdilution broth method as recommended by the National Committee for Clinical Laboratory Standards (Approved Standards M7-A5 2000). Mueller-Hinton broth is used for the enterobacteriaceae, staphylococci and enterococci. Streptococci are also tested in Mueller-Hinton broth supplemented with 5% horse blood (LHB). Test organisms include recent clinical isolates that are resistant to methicillin, penicillin and/or vancomycin. […].

[6] = test system: enterococci; assay: Minimum inhibitory concentration, microdilution broth method, enterococci; format: cell-based; details: Enterococcus faecalis, Mueller-Hinton broth, 18-22 hours at 35° C.
Experimental: as §5, §6

[7] = test system: Streptococci; assay: Minimum inhibitory concentration, microdilution broth method, streptococci; format: cell-based; details: S. pneumo GC 1894; Mueller-Hinton broth with 5% horse blood, 18-22 hours at 35° C.
Experimental: as §5, §6

[8] = S. aureus GC 1131, read-out: MIC S. aureus GC 1131
[9] = S. aureus GC 4543, read-out: MIC S. aureus GC 4543
[10] = E. faecalis GC 2242, read-out: MIC E. faecalis GC 2242
[11] = E. faecalis GC 4555, read-out: MIC E. faecalis GC 4555

Sequence of E. coli UDP-N-acetylglucosamine enolpyruvoyl transferase, MurA (P0A749 whole entry): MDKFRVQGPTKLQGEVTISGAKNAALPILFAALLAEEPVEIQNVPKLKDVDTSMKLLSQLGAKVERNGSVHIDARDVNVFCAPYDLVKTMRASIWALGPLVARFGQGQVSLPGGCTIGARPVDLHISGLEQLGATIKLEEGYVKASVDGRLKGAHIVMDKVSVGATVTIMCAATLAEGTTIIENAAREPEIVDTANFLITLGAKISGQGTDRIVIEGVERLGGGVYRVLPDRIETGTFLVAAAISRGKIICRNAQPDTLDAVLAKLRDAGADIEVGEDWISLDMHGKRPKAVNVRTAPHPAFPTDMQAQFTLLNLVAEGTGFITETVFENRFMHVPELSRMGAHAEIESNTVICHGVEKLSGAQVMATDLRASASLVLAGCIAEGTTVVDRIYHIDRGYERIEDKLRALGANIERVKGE

| Compound | IC50 [1] | IC50 [2] | IC50 [3] | IC50 [4] | MIC [5, 8] | MIC [5, 9] | MIC [6, 10] | MIC [6, 11] | MIC [7] | MurA IC50 [1] | MurB IC50 [2] | MurC IC50 [3] | MurD IC50 [4] |
| --- | --- | --- | --- | --- | --- | --- | --- | --- | --- | --- | --- | --- | --- |
| CCCc1ccc(-c2ccc(C3=C(O)/C(=C/c4cccc(C(F)(F)F)c4Cl)OC3=O)cc2)cc1 [Example 115] | 10.3 µM | 10.3 µM | > 51.6 µM | > 51.6 µM | 4 µg/mL (≈ 8.25 µM) | 4 µg/mL (≈ 8.25 µM) | 0.25 µg/mL (≈ 0.516 µM) | 2 µg/mL (≈ 4.12 µM) | 0.25 µg/mL (≈ 0.516 µM) |  |  |  |  |
| O=C1O/C(=C\c2cccc(C(F)(F)F)c2Cl)C(O)=C1c1ccc(-c2ccccc2)c(F)c1 [Example 114] |  |  |  |  | 1 µg/mL (≈ 2.17 µM) | 1 µg/mL (≈ 2.17 µM) | 0.5 µg/mL (≈ 1.09 µM) | 2 µg/mL (≈ 4.34 µM) | 0.25 µg/mL (≈ 0.543 µM) | 1 (E) μg/mL | 1 (E) μg/mL | 10 (E) μg/mL | 16 (E) μg/mL |
| CCOc1ccc(-c2ccc(C3=C(O)/C(=C/c4cc(C(F)(F)F)ccc4Cl)OC3=O)cc2)cc1 [Example 129] | 4.11 µM | 4.11 µM | 14.4 µM | 14.4 µM | 2 µg/mL (≈ 4.11 µM) | 2 µg/mL (≈ 4.11 µM) | 2 µg/mL (≈ 4.11 µM) | 4 µg/mL (≈ 8.22 µM) | 0.25 µg/mL (≈ 0.513 µM) |  |  |  |  |
| CCCc1ccc(-c2ccc(C3=C(O)/C(=C/c4cc(C(F)(F)F)ccc4Cl)OC3=O)cc2)cc1 [Example 127] | 8.25 µM | 12.4 µM | > 51.6 µM | > 51.6 µM | 4 µg/mL (≈ 8.25 µM) | 2 µg/mL (≈ 4.12 µM) | 2 µg/mL (≈ 4.12 µM) | 4 µg/mL (≈ 8.25 µM) | 0.25 µg/mL (≈ 0.516 µM) |  |  |  |  |
| O=C1O/C(=C\c2cc(C(F)(F)F)ccc2F)C(O)=C1c1ccc(-c2ccccc2)cc1 [Example 118] | 35.2 µM | 42.2 µM | 44.6 µM | > 58.6 µM | 16 µg/mL (≈ 37.5 µM) | 16 µg/mL (≈ 37.5 µM) | 16 µg/mL (≈ 37.5 µM) | 32 µg/mL (≈ 75.1 µM) | 4 µg/mL (≈ 9.38 µM) |  |  |  |  |
| CCOc1ccc(-c2ccc(C3=C(O)/C(=C/c4cccc(C(F)(F)F)c4)OC3=O)cc2)cc1 [Example 133] | 44.2 µM | 26.5 µM | 48.6 µM | 48.6 µM | 32 µg/mL (≈ 70.7 µM) | 32 µg/mL (≈ 70.7 µM) | 8 µg/mL (≈ 17.7 µM) | 16 µg/mL (≈ 35.4 µM) | 0.5 µg/mL (≈ 1.11 µM) |  |  |  |  |
| O=C1O/C(=C\c2cc(F)cc(C(F)(F)F)c2)C(O)=C1c1ccc(-c2ccccc2)c(F)c1 [Example 110] | 15.8 µM | 11.3 µM | 20.3 µM | 42.8 µM | 2 µg/mL (≈ 4.5 µM) | 2 µg/mL (≈ 4.5 µM) | 1 µg/mL (≈ 2.25 µM) | 4 µg/mL (≈ 9 µM) | 0.25 µg/mL (≈ 0.563 µM) |  |  |  |  |
| CCOc1ccc(-c2ccc(C3=C(O)/C(=C/c4cc(C(F)(F)F)ccc4F)OC3=O)cc2)cc1 [Example 122] | 34 µM | 29.8 µM | > 53.1 µM | > 53.1 µM | 16 µg/mL (≈ 34 µM) | 16 µg/mL (≈ 34 µM) | 8 µg/mL (≈ 17 µM) | 32 µg/mL (≈ 68 µM) | 1 µg/mL (≈ 2.13 µM) |  |  |  |  |
